From patent US7122576B2, “Carbamate compounds for use in preventing or treating bipolar disorder” (priority 2001, dated 2006)

Tested on: hippocampal kindled rats
Test: Hippocampal kindled rat model
Format: in vivo, Sprague-Dawley rats
Set-up: After-Discharge Threshold: unit not given here
Conditions: for Mean Seizure Score: seizure score scale 1-5
Procedure: Hippocampal Kindled Rat Model
In the hippocampal kindling model (Lothman E W, et al., Epilepsy Res., 1988, 2(6) 367–79), adult male Sprague-Dawley rats are surgically implanted with bipolar electrodes. Seizure score is assessed as follows: (1) mouth and facial movements; (2) above symptoms plus head nodding; (3) above symptoms plus forelimb clonus; (4) above symptoms plus rearing; and (5) above symptoms plus falling.

[1] = 50 mg/kg intraperitoneally, n=8
[2] = 100 mg/kg intraperitoneally, n=8
[3] = 200 mg/kg intraperitoneally, n=8
[4] = 300 mg/kg intraperitoneally, 0.25 hr after dose, n=2
[5] = 300 mg/kg intraperitoneally, 1 hr after dose, n=2
[6] = 300 mg/kg intraperitoneally, 2 hr after dose, n=2
[7] = 300 mg/kg intraperitoneally, 4 hr after dose, n=2

NC(=O)OC[C@H](OC(N)=O)c1ccccc1Cl [enantiomer of Formula (Ib)]
toxicity of dose (50 mg/kg intraperitoneally): nontoxic
% Protected [1]: 12.50%
After-Discharge Duration [1]: 75.88 s
Mean Seizure Score [1]: 3.75
effect on after-discharge threshold and duration (50 mg/kg intraperitoneally, n=8 per group, over approximately a 3 hour time period): time-dependent reduction in after-discharge threshold and duration
% Protected [2]: 33.33%
After-Discharge Duration [2]: 53.17 s
Mean Seizure Score [2]: 3
% Protected [3]: 87.50%
After-Discharge Duration [3]: 42 s
Mean Seizure Score [3]: 1.63
toxicity of dose (300 mg/kg intraperitoneally): nontoxic
After-Discharge Duration [4]: 44 s
After-Discharge Threshold [4]: 105
Mean Seizure Score [4]: 2.5
After-Discharge Duration [5]: 50 s
After-Discharge Threshold [5]: >200
Mean Seizure Score [5]: 1.5
After-Discharge Duration [6]: 53 s
After-Discharge Threshold [6]: >200
Mean Seizure Score [6]: 1.5
After-Discharge Duration [7]: 111 s
After-Discharge Threshold [7]: 200
Mean Seizure Score [7]: 2.5
effect against the expression of Stage 5 seizures (300 mg/kg intraperitoneally, n=2, over a 4 hour time period): effective
ED50 (Rattus norvegicus, ip, dose range 50 to 200 mg/kg, intraperitoneally, 95% confidence interval 67.9 to 189.8 mg/kg, read-out: calculated ED50 value for reduction of the seizure score from 5 to 3 or less): 112 mg/kg
anti-kindling effects (hippocampal-kindled rat model): potent anti-kindling effects
